These results are taken from patent US20220009920A1 (GB005, Inc., priority 2020, published 2022).

Common to all, as to assay: Large panel kinase profiling
Type in all cases: biochemical
What all share (settings): 1 μM test article, 1 mM ATP

One experiment concerns the target T1, MYO3B (Homo sapiens, UniProt Q8WXR4).
T1 construct: AssayQuant Technologies, Inc. (assay service)
T1 sequence (Q8WXR4 1-1341): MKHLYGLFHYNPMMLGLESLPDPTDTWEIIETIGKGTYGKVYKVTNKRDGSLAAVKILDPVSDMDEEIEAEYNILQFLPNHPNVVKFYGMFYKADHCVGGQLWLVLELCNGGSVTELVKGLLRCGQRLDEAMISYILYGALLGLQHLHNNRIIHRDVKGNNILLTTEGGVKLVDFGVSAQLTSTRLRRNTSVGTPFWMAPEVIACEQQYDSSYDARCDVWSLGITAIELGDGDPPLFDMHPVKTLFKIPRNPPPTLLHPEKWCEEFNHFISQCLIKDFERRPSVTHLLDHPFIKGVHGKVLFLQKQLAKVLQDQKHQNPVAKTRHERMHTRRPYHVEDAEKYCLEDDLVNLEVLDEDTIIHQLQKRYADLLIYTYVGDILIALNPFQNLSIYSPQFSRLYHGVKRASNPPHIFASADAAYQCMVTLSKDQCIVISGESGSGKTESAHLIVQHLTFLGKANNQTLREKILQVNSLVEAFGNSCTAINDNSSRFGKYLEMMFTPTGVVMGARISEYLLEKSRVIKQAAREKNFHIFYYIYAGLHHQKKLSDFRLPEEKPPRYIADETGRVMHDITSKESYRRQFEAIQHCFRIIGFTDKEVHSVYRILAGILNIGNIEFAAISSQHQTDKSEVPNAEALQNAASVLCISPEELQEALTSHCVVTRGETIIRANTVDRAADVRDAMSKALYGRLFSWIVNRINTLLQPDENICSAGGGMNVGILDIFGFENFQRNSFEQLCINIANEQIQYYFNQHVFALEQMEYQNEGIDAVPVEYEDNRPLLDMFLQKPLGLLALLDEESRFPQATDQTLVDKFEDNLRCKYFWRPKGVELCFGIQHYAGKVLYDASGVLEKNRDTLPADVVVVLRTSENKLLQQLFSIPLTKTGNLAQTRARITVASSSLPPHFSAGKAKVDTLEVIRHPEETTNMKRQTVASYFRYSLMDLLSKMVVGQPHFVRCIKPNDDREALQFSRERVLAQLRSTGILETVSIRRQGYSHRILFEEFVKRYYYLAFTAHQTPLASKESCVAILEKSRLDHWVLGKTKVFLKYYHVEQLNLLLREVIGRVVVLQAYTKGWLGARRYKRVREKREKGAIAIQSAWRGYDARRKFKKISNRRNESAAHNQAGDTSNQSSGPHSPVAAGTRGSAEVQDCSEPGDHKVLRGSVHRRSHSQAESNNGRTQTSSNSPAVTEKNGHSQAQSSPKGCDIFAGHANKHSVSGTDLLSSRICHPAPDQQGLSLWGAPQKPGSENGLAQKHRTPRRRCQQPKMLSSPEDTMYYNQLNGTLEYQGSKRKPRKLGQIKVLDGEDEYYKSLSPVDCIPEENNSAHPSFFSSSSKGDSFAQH
In a few lines: (§1)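 Kinase activity was followed with the PhosphoSens CSox-Sensor platform, testing compound at 1 μM in the presence of 1 mM ATP. Reactions ran at 30° C. and fluorescence (Ex 360 nm/Em 485 nm) was read kinetically every 1 min.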

Another experiment addresses LIMK1 (Homo sapiens, UniProt P53667). Put shortly:
as §1

The next experiment deals with EPHA4 (Homo sapiens, UniProt P54764). In a few lines: as §1
In another experiment the target is ERBB4/HER4 (Homo sapiens, UniProt Q15303). Put shortly:
as §1

Another experiment concerns the target T2, MAP3K3 (Homo sapiens, UniProt Q99759).
T2 construct: AssayQuant Technologies, Inc. (service provider)
T2 sequence (Q99759 1-626): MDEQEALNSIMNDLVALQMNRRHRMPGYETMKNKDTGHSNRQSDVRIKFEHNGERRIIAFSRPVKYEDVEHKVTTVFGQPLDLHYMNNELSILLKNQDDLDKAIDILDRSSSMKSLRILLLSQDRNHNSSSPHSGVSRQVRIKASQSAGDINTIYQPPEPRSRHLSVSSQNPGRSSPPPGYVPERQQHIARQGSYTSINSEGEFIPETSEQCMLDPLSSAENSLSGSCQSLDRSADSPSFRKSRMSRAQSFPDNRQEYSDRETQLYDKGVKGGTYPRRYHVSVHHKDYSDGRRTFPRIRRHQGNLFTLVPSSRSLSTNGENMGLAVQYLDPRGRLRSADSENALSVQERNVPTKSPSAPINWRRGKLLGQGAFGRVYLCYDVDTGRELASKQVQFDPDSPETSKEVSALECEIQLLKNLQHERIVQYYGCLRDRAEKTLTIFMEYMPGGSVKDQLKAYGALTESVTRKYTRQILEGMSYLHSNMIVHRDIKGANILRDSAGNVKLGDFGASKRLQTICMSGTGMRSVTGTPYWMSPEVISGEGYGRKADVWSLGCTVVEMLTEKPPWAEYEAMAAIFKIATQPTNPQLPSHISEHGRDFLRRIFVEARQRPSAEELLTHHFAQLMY
In a few lines: as §1

The target in a further experiment is T3, CDK9/T1 (Homo sapiens, UniProt P50750).
T3 construct: AssayQuant Technologies, Inc. (ran the panel)
In a few lines: as §1

Each structure is given as a SMILES string.

EPHA4, sequence (P54764 20-986, species assumed): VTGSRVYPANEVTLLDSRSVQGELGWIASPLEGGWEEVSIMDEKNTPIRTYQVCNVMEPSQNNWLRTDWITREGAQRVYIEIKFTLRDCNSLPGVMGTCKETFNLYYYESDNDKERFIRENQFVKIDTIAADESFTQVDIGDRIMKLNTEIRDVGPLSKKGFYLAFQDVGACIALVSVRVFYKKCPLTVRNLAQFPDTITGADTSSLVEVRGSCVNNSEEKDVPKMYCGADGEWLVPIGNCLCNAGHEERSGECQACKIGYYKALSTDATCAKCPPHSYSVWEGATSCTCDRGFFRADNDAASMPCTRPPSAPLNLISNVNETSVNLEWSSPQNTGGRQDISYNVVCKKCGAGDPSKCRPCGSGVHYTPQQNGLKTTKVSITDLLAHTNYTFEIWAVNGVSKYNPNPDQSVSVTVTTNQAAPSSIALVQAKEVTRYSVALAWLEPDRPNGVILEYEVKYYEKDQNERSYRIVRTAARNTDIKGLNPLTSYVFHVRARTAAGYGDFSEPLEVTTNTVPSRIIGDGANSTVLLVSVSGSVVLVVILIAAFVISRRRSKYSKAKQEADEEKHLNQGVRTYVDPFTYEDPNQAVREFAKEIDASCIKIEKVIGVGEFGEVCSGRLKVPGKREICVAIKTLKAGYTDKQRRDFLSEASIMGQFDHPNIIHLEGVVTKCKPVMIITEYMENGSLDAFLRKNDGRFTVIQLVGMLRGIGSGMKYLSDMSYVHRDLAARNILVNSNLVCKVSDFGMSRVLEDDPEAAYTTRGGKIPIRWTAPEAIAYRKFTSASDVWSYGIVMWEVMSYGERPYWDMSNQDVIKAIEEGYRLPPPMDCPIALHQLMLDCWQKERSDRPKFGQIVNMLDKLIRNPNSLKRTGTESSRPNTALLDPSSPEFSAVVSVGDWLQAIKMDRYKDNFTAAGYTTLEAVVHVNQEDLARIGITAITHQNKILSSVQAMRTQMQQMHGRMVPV
LIMK1, sequence (P53667 whole entry, species assumed): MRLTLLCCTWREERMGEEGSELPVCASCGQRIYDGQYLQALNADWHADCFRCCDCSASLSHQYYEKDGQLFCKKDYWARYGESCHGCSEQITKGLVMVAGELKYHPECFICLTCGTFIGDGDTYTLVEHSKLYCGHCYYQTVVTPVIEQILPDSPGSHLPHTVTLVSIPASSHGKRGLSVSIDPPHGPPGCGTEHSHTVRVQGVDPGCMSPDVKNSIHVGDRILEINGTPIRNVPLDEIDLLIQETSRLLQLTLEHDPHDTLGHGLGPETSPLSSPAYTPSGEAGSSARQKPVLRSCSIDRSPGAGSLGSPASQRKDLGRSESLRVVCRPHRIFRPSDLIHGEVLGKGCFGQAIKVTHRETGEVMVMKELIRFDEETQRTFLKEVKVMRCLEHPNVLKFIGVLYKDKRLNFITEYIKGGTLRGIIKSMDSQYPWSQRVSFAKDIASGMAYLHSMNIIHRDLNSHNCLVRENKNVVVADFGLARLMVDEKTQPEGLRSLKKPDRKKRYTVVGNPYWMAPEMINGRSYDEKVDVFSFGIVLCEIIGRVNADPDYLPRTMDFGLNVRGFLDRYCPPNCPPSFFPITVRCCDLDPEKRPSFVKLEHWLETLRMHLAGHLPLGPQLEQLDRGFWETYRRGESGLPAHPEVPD
T3 sequence (P50750 whole entry, species assumed): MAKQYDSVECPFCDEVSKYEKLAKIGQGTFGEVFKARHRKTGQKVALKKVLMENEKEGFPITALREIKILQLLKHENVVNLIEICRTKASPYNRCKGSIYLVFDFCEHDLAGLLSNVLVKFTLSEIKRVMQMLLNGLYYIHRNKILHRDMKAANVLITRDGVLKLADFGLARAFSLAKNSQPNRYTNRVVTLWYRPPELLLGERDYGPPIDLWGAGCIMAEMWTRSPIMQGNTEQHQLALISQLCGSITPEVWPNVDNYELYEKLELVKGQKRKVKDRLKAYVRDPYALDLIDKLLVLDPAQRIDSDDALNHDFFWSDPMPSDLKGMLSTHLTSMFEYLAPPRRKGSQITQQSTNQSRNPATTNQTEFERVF
T3 sequence (O60563 whole entry partner, species assumed): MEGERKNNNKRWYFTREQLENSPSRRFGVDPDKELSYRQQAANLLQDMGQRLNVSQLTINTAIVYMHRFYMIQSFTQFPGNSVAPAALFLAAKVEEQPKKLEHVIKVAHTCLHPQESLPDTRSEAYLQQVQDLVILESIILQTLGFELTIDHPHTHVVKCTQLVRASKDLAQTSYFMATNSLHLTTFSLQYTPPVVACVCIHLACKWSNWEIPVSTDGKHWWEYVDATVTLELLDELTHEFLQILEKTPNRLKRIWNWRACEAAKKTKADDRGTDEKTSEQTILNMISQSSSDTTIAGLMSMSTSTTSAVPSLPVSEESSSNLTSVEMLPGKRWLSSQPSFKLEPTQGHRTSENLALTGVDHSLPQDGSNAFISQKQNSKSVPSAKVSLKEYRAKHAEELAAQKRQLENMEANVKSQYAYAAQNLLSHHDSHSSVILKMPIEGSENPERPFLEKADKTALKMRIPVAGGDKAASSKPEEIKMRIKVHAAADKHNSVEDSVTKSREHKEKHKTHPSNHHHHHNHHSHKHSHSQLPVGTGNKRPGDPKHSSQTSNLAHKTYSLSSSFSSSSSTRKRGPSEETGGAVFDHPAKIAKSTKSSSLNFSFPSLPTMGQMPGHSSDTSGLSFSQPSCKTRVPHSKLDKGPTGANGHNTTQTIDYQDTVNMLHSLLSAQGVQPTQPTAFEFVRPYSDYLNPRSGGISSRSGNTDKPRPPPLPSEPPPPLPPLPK
ERBB4/HER4, sequence (Q15303 26-1308): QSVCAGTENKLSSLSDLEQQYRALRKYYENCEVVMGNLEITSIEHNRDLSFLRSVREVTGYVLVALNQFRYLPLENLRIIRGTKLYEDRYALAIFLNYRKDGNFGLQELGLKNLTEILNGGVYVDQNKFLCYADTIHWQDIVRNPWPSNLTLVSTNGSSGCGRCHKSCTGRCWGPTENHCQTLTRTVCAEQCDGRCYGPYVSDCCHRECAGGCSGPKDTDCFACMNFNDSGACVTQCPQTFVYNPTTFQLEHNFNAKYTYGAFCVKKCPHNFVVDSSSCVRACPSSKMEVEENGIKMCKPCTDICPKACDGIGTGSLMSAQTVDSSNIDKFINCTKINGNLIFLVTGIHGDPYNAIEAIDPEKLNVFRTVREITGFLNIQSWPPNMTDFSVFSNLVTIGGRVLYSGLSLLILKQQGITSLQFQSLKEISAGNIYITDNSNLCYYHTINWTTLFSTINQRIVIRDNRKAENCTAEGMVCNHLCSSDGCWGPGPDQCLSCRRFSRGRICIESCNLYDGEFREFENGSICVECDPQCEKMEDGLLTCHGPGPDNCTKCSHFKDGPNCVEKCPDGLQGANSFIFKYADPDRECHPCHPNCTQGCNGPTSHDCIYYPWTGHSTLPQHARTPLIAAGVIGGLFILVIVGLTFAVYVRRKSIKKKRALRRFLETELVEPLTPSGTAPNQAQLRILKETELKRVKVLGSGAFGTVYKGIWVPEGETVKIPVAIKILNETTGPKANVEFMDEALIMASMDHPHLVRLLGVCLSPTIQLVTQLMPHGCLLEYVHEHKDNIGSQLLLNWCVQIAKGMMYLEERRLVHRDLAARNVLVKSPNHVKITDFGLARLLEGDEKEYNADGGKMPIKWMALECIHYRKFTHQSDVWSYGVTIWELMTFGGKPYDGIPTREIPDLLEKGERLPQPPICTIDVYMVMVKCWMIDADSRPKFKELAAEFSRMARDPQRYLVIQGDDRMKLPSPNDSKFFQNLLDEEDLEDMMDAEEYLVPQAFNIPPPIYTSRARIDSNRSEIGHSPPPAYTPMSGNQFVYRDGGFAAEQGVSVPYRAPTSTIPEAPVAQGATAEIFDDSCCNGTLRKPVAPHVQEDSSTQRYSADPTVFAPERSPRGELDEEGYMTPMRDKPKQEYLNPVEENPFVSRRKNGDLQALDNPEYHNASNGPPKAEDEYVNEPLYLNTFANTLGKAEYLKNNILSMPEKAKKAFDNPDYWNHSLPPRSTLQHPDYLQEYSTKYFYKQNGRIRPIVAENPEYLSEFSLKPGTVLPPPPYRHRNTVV

What is called inhibition is the change of the read-out against control, counted positive when it falls. `C=CC(=O)N1CCCC(c2c(F)cc(C(N)=O)c3[nH]c4c(c23)CCCCC4)C1` (single isomer, unassigned) [Compound 5-6]: the inhibition at 1 µM was -36.2% at MYO3B; -7.2% at LIMK1; 4.2% at EPHA4; -19.7% against ERBB4/HER4; -7% against MAP3K3; -11% against CDK9/T1.

With `C=CC(=O)N1CCC[C@@H](c2c(F)cc(C(N)=O)c3[nH]c4c(c23)CC2(CC4)CC2)C1` [Compound 6-2, (S)-5-(1-acryloylpiperidin-3-yl)-6-fluoro-1,2,4,9-tetrahydrospiro[carbazole-3,1′-cyclopropane]-8-carboxamide], the inhibition at 1 µM at MYO3B is -16.5%; at LIMK1, -14.7%; against EPHA4, 4.9%; against ERBB4/HER4 it was 2.4%; on MAP3K3 it was -3.6%; on CDK9/T1, -9.9%.

Regarding `C=CC(=O)N1CCC[C@@H](c2c(F)cc(C(N)=O)c3[nH]c4c(c23)CCC4)C1` [Compound 10-2, (S)-8-(1-acryloylpiperidin-3-yl)-7-fluoro-1,2,3,4-tetrahydrocyclo-penta[b]indole-5-carboxamide], the inhibition at 1 µM is -11% on MYO3B; -10.7% against LIMK1; -44.2% against EPHA4; 17.1% on ERBB4/HER4; 19.9% at MAP3K3; -26.7% on CDK9/T1.
